The results in this text go back to PMC12104396, “Comparative in vitro assessment of CYP2C19 inhibition by ilaprazole and conventional proton pump inhibitors using a high throughput fluorometric assay” (Scientific Reports, 2025).

Values joined by “and” are separate entries in the source; they are usually repeats but may differ in a detail not shown here. Equal entries are not always repeated.

As a reminder, the Ki is a dissociation constant, usually derived from enzyme kinetics or from competition with a known ligand. For orientation: IC50 means the concentration at which inhibition is half-maximal.

One data set has as its target T1, CYP2C19 (Homo sapiens, UniProt P33261).
T1 construct: purchased Thermo Scientific P2864
As to the kind of experiment: High-throughput fluorometric CYP2C19 inhibition assay (Vivid CYP2C19 Blue Screening Kit, EOMCC substrate, endpoint mode). In kind it is biochemical. The following applies: for Ki: approximated as IC50,u/2 (Cheng-Prusoff, S much lower than Km), read-out: Ki,u (unbound inhibition constant); for IC50: recombinant human CYP2C19 BACULOSOMES, eight concentrations, duplicate, nonlinear regression. As for the experimental part: Vivid™ CYP2C19 Blue Screening Kit (Thermo Scientific; Cat. No. P2864).
Vivid® CYP450 2X Reaction Buffer 100 Mm, CYP2C19 BACULOSOMES® Plus Reagent 0.5 nmol (Recombinant human cytochrome P450), 0.5 mL Vivid® Regeneration System (Glucose-6-phosphate and 30U/mL Glucose-6-phosphate dehydrogenase in 100 mM Potassium phosphate), 0.5 mL Vivid® NADP + , Vivid® EOMCC Substrate 0.1 mg, Vivid® Blue Fluorescent Standard 0.1 µmol.
Test compounds: Dissolved in DMSO; diluted to 2.5X in 1X buffer.
Positive control inhibitor (Ticlopidine): Stock in DMSO; 2.5X dilution in 1X buffer.
Master Pre-Mix: P450 BACULOSOMES® (50 µL) + Vivid® Regeneration System (100 µL) in 1X buffer.
Substrate/NADP + Mixture: Reconstituted substrate (0.1 mg in 205 µL acetonitrile); added 50 µL substrate + 30 µL NADP + (100X).
A high-throughput fluorometric assay was conducted using a black 96-well microplate. Fluorescence measurements were recorded on a BioTek Synergy H1 multimode microplate reader (Agilent, US) with the appropriate excitation/emission wavelength. The assay followed the protocol provided by Life Technologies, USA. Test compounds were evaluated based on their ability to inhibit fluorescent signal production in reactions involving recombinant CYP isozymes and specific substrates. For IC50 determination, two-fold serial dilutions of the test samples were prepared, and the plates were incubated at 37 °C for 20 min. The enzymatic reaction was initiated by adding a mixture of NADP + and the appropriate substrate, followed by a 10-min incubation at 37 °C. The reaction was then stopped by adding 0.5 M Tris buffer (end-point assay). Fluorescence data was collected at eight different concentrations for both inhibitors and test compounds, with all measurements performed in duplicate.
Fluorescence data were collected after the incubation period, to calculate the percentage inhibition using the following formula: [drawing 1]
X = Fluorescence intensity of test compound (PPIs), A = Fluorescence intensity of solvent control (Fluorescence standard), B = Fluorescence intensity of the positive inhibitor (Ticlopidine).
IC50 values for CYP2C19 (the concentration required to inhibit 50% of CYP2C19 activity) inhibition were calculated using nonlinear regression analysis in GraphPad Prism 9 software.
IC₅₀,u (unbound IC₅₀) was calculated using the formula: [drawing 2] fu, inc = Fraction unbound in the incubation system (0.02, as per regulatory assumptions for highly protein-bound drugs).
The unbound inhibition constant (Ki,u) was determined using the Cheng-Prusoff equation: [drawing 3]
S = Substrate concentration used in the assay, IC₅₀,u = unbound half-maximal inhibitory concentration, Km = Michaelis constant for the substrate.
Fluorometric assay is the most commonly used method to identify the CYP inhibition of compounds in early drug discovery due to its sensitivity, speed, low cost, and ease of use. This method helps to ensure the drug interaction potential of the test compound on the important CYP isoforms such as CYP2C19. Inhibitor potency was quantified by determining IC50 values, which in turn was carried out using fixed substrate and inhibitor concentrations. Ilaprazole, Conventional PPIs, and Positive Control (Ticlopidine) were assayed between concentrations ranging from 0.8 to 6.4 μg/mL (Eight Different Concentration). All samples were assayed in duplicate as per the experimental condition (Table 1), the endpoint mode was selected to analyze the percentage inhibition, and IC50 values were calculated.

Data set [1] can be described thus: Unbound peak plasma concentration (Cmax,u) from literature Cmax. Conditions: unbound peak plasma concentration = literature Cmax x fu 0.01; highest recommended doses. The format is in vivo. From the text: The Cmax values for Pantoprazole, Rabeprazole, Lansoprazole, and Omeprazole were obtained from reliable sources, primarily the highest recommended doses listed in the FDA drug labels[15]–[19]. However, for Ilaprazole, as no literature data was available, its Cmax was obtained from available pharmacokinetic studies [drawing 4]
Cmax,u = unbound peak plasma concentration, Cmax = Maximum plasma concentration (from literature), fu = fraction unbound in plasma (0.01 as per the guidance for high protein-bound drugs).

T1 sequence (P33261 whole entry): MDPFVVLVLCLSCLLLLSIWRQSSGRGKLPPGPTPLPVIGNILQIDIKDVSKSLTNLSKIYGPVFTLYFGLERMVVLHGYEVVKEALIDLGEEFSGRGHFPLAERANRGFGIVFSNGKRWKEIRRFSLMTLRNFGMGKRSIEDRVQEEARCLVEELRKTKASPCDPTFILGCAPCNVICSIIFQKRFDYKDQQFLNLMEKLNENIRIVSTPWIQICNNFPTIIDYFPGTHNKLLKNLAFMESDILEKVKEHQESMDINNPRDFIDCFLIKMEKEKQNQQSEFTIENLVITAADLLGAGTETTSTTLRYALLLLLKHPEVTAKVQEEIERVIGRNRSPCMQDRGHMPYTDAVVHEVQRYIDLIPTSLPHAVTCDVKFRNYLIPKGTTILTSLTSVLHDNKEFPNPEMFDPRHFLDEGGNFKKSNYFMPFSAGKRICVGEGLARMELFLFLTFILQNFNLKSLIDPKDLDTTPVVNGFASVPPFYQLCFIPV

With `COc1ccnc(C[S+]([O-])c2nc3cc(-n4cccc4)ccc3[nH]2)c1C` (stereo not drawn) [Ilaprazole], at CYP2C19, the Ki was determined as 166 µM and the IC50 is 6.62 ± 1.34 µM. Also, in data set [1], the “Cmax,u” value was 0.0045 µg/mL and 0.0123 µM.
For `COc1ccc2[nH]c([S+]([O-])Cc3ncc(C)c(OC)c3C)nc2c1` (stereo not drawn) [Omeprazole], at CYP2C19, the Ki is 35.2 µM and the IC50 worked out at 1.41 ± 0.96 µM. For the same molecule, the “Cmax,u” value in data set [1] is 0.0112 µg/mL and 0.0324 µM.
Regarding `Cc1c(OCC(F)(F)F)ccnc1C[S+]([O-])c1nc2ccccc2[nH]1` (stereo not drawn) [Lansoprazole], at CYP2C19, the Ki is 41.3 µM and the IC50 stood at 1.65 ± 1.37 µM. Besides, the “Cmax,u” value in data set [1] was 0.0115 µg/mL and 0.0311 µM.
In the case of `COCCCOc1ccnc(C[S+]([O-])c2nc3ccccc3[nH]2)c1C` (stereo not drawn) [Rabeprazole], at CYP2C19, the Ki is 161 µM and the IC50 was 6.43 ± 1.09 µM. In addition, in data set [1], the “Cmax,u” value is 0.0062 µg/mL and 0.0173 µM.
For the molecule `COc1ccnc(C[S+]([O-])c2nc3ccc(OC(F)F)cc3[nH]2)c1OC` (stereo not drawn) [Pantoprazole], on CYP2C19, the Ki worked out at 88 µM and the IC50 was determined as 3.52 ± 1.47 µM. Further, in data set [1], the “Cmax,u” value was 0.025 µg/mL and 0.0652 µM.
